Assay: Human HepG2 cell viability assay in 384 well format
Type: toxicity, cell-based
Parameters: dose 125 nL, time 70.5 hour; concentration not given beside the values
Settings: HepG2 cells, read-out: Inhibition

Cc1nc(CSc2nc(=O)ccn2C(C)C)cs1
cytotoxicity at 70.5 h: -6.6%

Cc1cc(C)n(C2CN(Cc3ccccn3)C2)n1
cytotoxicity at 70.5 h: -9.82%

Cc1cc(CN2CCCC(c3cc(C(F)(F)F)[nH]n3)C2)no1 (stereo unspecified)
cytotoxicity at 70.5 h: -15.8%

Cc1cc(S(=O)(=O)N2CCCc3cc(Br)ccc32)sc1C(=O)O
cytotoxicity at 70.5 h: -6.91%

Cc1cccc(C(=O)N2CCN(CCOC(C)C)CC2)n1
cytotoxicity at 70.5 h: -6.81%

CCOCC(=O)N1CC[C@H]2OCC[C@@]2(COc2ncccc2F)C1
cytotoxicity at 70.5 h: -12%

Cc1nc(C)n(CC2CN(c3ncnc4[nH]ccc34)CCO2)n1 (stereo unspecified)
cytotoxicity at 70.5 h: 1.75%

CCCn1nnc(NCc2ccc(-c3ccc(Br)cc3)o2)n1
cytotoxicity at 70.5 h: -11.9%

CNC(=O)Cc1noc(-c2cc3c(s2)CCCC3)n1
cytotoxicity at 70.5 h: -8.17%

COCC(=O)N1CC[C@@H](OCC2CC2)[C@@H]1Cc1cccnc1
cytotoxicity at 70.5 h: 0.787%

Cc1ccc(CN2CCC[C@]3(C(=O)O)CN(c4ncccn4)C[C@@H]3C2)o1
cytotoxicity at 70.5 h: 0.612%

COc1ccccc1CCc1nc(CC2CCN(C)CC2)no1
cytotoxicity at 70.5 h: -2.87%

Cc1cc(F)ccc1NS(=O)(=O)c1cc2c(c(C(=O)O)c1)OCCO2
cytotoxicity at 70.5 h: -4.92%

O=C(N[C@@H]1CC[C@@H](n2ccnc2)[C@@H]1O)c1cc2c(s1)CCC2
cytotoxicity at 70.5 h: 1.51%

CCOCC1CN(S(=O)(=O)c2cccc(C)c2)Cc2nccn2C1 (stereo unspecified)
cytotoxicity at 70.5 h: -8.99%

Cc1nnc(N2CCCC(C(=O)c3cccc(Cl)c3)C2)o1 (stereo unspecified)
cytotoxicity at 70.5 h: -3.19%

c1ccc(CN2CC[C@@H]3[C@@H](CO[C@@H]3CNc3ncccn3)C2)nc1
cytotoxicity at 70.5 h: -7.29%

CCOC(=O)N1CCN(C(=O)c2cc(-c3ccccc3F)on2)CC1
cytotoxicity at 70.5 h: -0.971%

CN(C(=O)c1ccccn1)c1nnc(C2CCOC2)s1 (stereo unspecified)
cytotoxicity at 70.5 h: -7.71%

O=C(c1ccncc1F)N1CCc2onc(COc3cccnc3)c2C1
cytotoxicity at 70.5 h: -6.64%

Cc1nc(CN2CCCC3(CCN(c4cnn(C)c4)C3=O)C2)cs1 (stereo unspecified)
cytotoxicity at 70.5 h: -11.6%

CCc1n[nH]c(C2CN(Cc3csc(C4CCCC4)n3)CCO2)n1 (stereo unspecified)
cytotoxicity at 70.5 h: 6.69%

CCc1cnc(C)nc1NC1CC(=O)N(CC)C1 (stereo unspecified)
cytotoxicity at 70.5 h: -7.16%

Cc1cc(C(F)(F)F)nc(CCNC(C)Cn2nc(C)cc2C)n1 (stereo unspecified)
cytotoxicity at 70.5 h: -16.8%

NC(=O)C1CCCN1Cc1cccc(NC(=O)c2ccc(Cl)cc2F)c1 (stereo unspecified)
cytotoxicity at 70.5 h: -20.5%

Cc1cc(-c2cnc(C(C)C)nc2CN(C)C(=O)c2ccccn2)on1
cytotoxicity at 70.5 h: -6.43%

Cc1cc(NC(C)Cc2cccnc2)n2nccc2n1 (stereo unspecified)
cytotoxicity at 70.5 h: -12%

Cc1nn2cccnc2c1C(=O)N1CCCC(Nc2ccccc2)C1 (stereo unspecified)
cytotoxicity at 70.5 h: -0.861%

O=C(c1cccnc1)N1CCC2(CNS(=O)(=O)c3cnccc3O2)C1 (stereo unspecified)
cytotoxicity at 70.5 h: 17.8%

Cn1nc(CNC(=O)C2CCCC2)cc1C1CC1
cytotoxicity at 70.5 h: 38.9%

Cc1ccc(C)c(-n2cc(CN3CC[C@@H](O)C3)c(-c3ccccc3)n2)c1
cytotoxicity at 70.5 h: -0.782%

CC(C)N(C)C(=O)C1=NOC2(CCN(C(=O)c3ccnnc3)C2)C1 (stereo unspecified)
cytotoxicity at 70.5 h: -1.5%

Cc1nn(C)c(Cl)c1C1CCCN1CC(=O)NCc1ccco1 (stereo unspecified)
cytotoxicity at 70.5 h: -8.19%

Cc1cnc(CNCc2cnc(-c3ccccc3C)s2)cn1
cytotoxicity at 70.5 h: -1.03%

Cc1c(NC(C)C(C)C)cccc1C(=O)NCc1nccn1C (stereo unspecified)
cytotoxicity at 70.5 h: -3.37%

FC(F)Oc1ccc(CN2CCOC3(CCOCC3)C2)cc1Cl
cytotoxicity at 70.5 h: 1.46%

Cc1ccc(-c2nc(CN3CCCC3Cn3cc(C)cn3)no2)cc1 (stereo unspecified)
cytotoxicity at 70.5 h: 23.6%

COCCN(Cc1ccoc1)C(=O)c1ccccc1Cl
cytotoxicity at 70.5 h: 6.96%

Cc1noc(CN2CCN(Cc3cccs3)CC2)n1
cytotoxicity at 70.5 h: -25.4%

O=C(CN1CCOc2ccc(Cl)cc21)NCCCn1ccnc1
cytotoxicity at 70.5 h: -5.4%

COC(=O)CNC(=O)c1nc(Cl)sc1C(C)C
cytotoxicity at 70.5 h: 24.5%

N[C@H]1CN(S(=O)(=O)c2ccccc2)C[C@@H]1C1CC1
cytotoxicity at 70.5 h: 17.3%

NC(c1ccc(Cl)cc1)c1cccs1 (stereo unspecified)
cytotoxicity at 70.5 h: 9.24%

CCN(CC)C(=O)CN(C)C(=O)c1ccc(-c2ccsc2)nc1C
cytotoxicity at 70.5 h: 33.4%

O=C(CCn1cncn1)NC1(c2cccc(Br)c2)CCC1
cytotoxicity at 70.5 h: -2.65%

COCCN(C)C[C@@H]1CN(C(=O)NC2CCCCC2)C[C@@H]1CO
cytotoxicity at 70.5 h: -8.61%

CC(C)Cn1ncc(C(=O)O)c1C1CC1
cytotoxicity at 70.5 h: -5.02%

CCc1noc(C)c1C(=O)N1CCCC1c1c(C)nn(C)c1C (stereo unspecified)
cytotoxicity at 70.5 h: -1.9%

Cc1ccoc1C(=O)N1CC[C@H]2C[C@H](c3nnc(C4CC4)o3)O[C@@H]2C1
cytotoxicity at 70.5 h: -11.4%

Cc1cccc(NS(=O)(=O)c2cc(C(=O)O)oc2C)c1
cytotoxicity at 70.5 h: -0.669%

NC(=O)c1ccccc1NC(=O)CCN1CCN(CCO)CC1
cytotoxicity at 70.5 h: -10.4%

CCN1CC(CN(C)Cc2nc(-c3ccc(C)o3)oc2C)CC1=O (stereo unspecified)
cytotoxicity at 70.5 h: -6.14%

Cc1ncc(-c2ccncc2)c(C2CCN(C(=O)c3ccco3)CC2)n1
cytotoxicity at 70.5 h: -2.42%

O=C(CCN1CCc2c(ncn2C2CC2)C1)NC1CCCC1
cytotoxicity at 70.5 h: -6.41%

CN(C)c1ccc2c(c1)CN(C(=O)c1c[nH]cn1)C2c1cnco1 (stereo unspecified)
cytotoxicity at 70.5 h: 29.3%

CCCc1cc(C(=O)N[C@@H]2CC[C@@H](N3CCOCC3)[C@@H]2O)no1
cytotoxicity at 70.5 h: -5.49%
